Test results taken from patent US20050054006A1, “Combinatorial fluorescent library based on the styryl scaffold” (New York University, priority 2003, published 2005).
Entries after “also recorded” stand apart in the source; their conditions may differ.

Legend:
[1] = Fluorescence excitation/emission of the styryl dye library compounds; format: physicochemical
[2] = system: UACC-62 human melanoma cells; experiment: Organelle localization in live cells by fluorescence microscopy; conditions: live UACC-62 cells, fluorescence microscope λex=405, 490, 570 nm; λem>510 nm

Q: Which results are given for COc1ccc2c(ccc(C=Cc3ccccc3[N+](=O)[O-])[n+]2C)c1.[I-] [Compound I20]?
A: EM(nm) ([1]; EX/EM peak no. 1): 620 nm; EX(nm) ([1]; EX/EM peak no. 1): 420(broad) nm; LOCALIZATION [2]: NUCLEOLI

Q: Which “EM(nm)” value ([1]; EX/EM peak no. 1) does the source give for COc1ccc(C=Cc2ccc3ccccc3[n+]2C)c2ccccc12.[I-] [Compound H14] here?
A: The value was 590 nm.

Q: What about the “EX(nm)” value ([1]; EX/EM peak no. 1) of the same molecule?
A: The value was 420-520 nm.

Q: What about the LOCALIZATION [2] of the same molecule?
A: Its LOCALIZATION is “VESICLE”.

Q: For Fc1c(F)c(F)c(C=Cc2cc[n+](C34CC5CC(CC(C5)C3)C4)cc2)c(F)c1F.[Br-] [Compound B31], which “EM(nm)” value ([1]; EX/EM peak no. 1) is on record?
A: Its value is 580 nm.

Q: And the “EX(nm)” value ([1]; EX/EM peak no. 1)?
A: Its value is 430 nm.

Q: And the LOCALIZATION [2]?
A: The LOCALIZATION was “MITO”.

Q: With CCc1ccc(C=C/C=C/c2ccc(N(C)C)cc2)[n+](C)c1.[I-] [Compound E37] as the molecule, how does the “EM(nm)” value ([1]; EX/EM peak no. 1) read?
A: Its value is 670 nm.

Q: What about the “EX(nm)” value ([1]; EX/EM peak no. 1) of the same molecule?
A: Its value is 520 nm.

Q: What about the LOCALIZATION [2] of the same molecule?
A: The LOCALIZATION was “MITO and NUCLEOLI”.

Q: Which “EM(nm)” value ([1]; EX/EM peak no. 1) does the source give for C[n+]1ccc(C=Cc2ccc3ccccc3c2)c2ccccc21.[I-] [Compound G33] here?
A: Its value is 550 nm.

Q: And the “EX(nm)” value ([1]; EX/EM peak no. 1)?
A: Its value is 360-470 nm.

Q: And the LOCALIZATION [2]?
A: The LOCALIZATION was “MITO and CYTO”.

Q: Which “EM(nm)” value ([1]; EX/EM peak no. 1) does the source give for C[n+]1c(C=Cc2cccc([N+](=O)[O-])c2)ccc2ccccc21.[I-] [Compound H21] here?
A: The value was 630 nm.

Q: And the “EX(nm)” value ([1]; EX/EM peak no. 1)?
A: The value was 420-550 nm.

Q: What about the LOCALIZATION [2] of the same molecule?
A: Its LOCALIZATION is “MITO and NUCLEOLI”.

Q: For CN(C)c1ccc(C=Cc2ccc3ccccc3[n+]2C)c2ccccc12.[I-] [Compound H27], which “EM(nm)” value ([1]; EX/EM peak no. 1) is on record?
A: Its value is 620 nm.

Q: And the “EX(nm)” value ([1]; EX/EM peak no. 1)?
A: Its value is 500(broad) nm.

Q: And the LOCALIZATION [2]?
A: Its LOCALIZATION is “MITO”.

Q: For COc1ccc2c(ccc(C=Cc3cccc(Br)c3)[n+]2C)c1.[I-] [Compound I4], which “EM(nm)” value ([1]; EX/EM peak no. 1) is on record?
A: Its value is 620 nm.

Q: What about the “EX(nm)” value ([1]; EX/EM peak no. 1) of the same molecule?
A: Its value is 400(broad) nm.

Q: And the LOCALIZATION [2]?
A: The LOCALIZATION was “GRANULE”.

Q: Which “EM(nm)” value ([1]; EX/EM peak no. 1) does the source give for COc1ccc2c(ccc(C=Cc3ccccc3Br)[n+]2C)c1.[I-] [Compound I3] here?
A: The value was 640 nm.

Q: And the “EX(nm)” value ([1]; EX/EM peak no. 1)?
A: Its value is 480 nm.

Q: What about the LOCALIZATION [2] of the same molecule?
A: Its LOCALIZATION is “MITO”.

Q: For C(=Cc1ccc2ccccc2c1)c1cc[n+](C23CC4CC(CC(C4)C2)C3)cc1.[Br-] [Compound B33], which “EM(nm)” value ([1]; EX/EM peak no. 1) is on record?
A: Its value is 500 nm.

Q: And the “EX(nm)” value ([1]; EX/EM peak no. 1)?
A: Its value is 350-420 nm.

Q: And the “EM(nm)” value ([1]; EX/EM peak no. 2)?
A: Its value is 580 nm.

Q: What about the “EX(nm)” value ([1]; EX/EM peak no. 2) of the same molecule?
A: The value was 360-400 nm.

Q: What about the LOCALIZATION [2] of the same molecule?
A: The LOCALIZATION was “MITO and CYTO and VESICLE”.

Q: For COc1ccc2c(ccc(/C=C/c3ccc(NC(C)=O)cc3)[n+]2C)c1.[I-] [Compound I18], which “EM(nm)” value ([1]; EX/EM peak no. 1) is on record?
A: Its value is 650 nm.

Q: What about the “EX(nm)” value ([1]; EX/EM peak no. 1) of the same molecule?
A: Its value is 430(broad) nm.

Q: What about the LOCALIZATION [2] of the same molecule?
A: The LOCALIZATION was “NUCLEOLI”.

Q: With CN(C)c1ccc(C=Cc2cc[n+](C)cc2)cc1.[I-] [Compound A19] as the molecule, how does the “EM(nm)” value ([1]; EX/EM peak no. 1) read?
A: Its value is 600 nm.

Q: What about the “EX(nm)” value ([1]; EX/EM peak no. 1) of the same molecule?
A: The value was 460 nm.

Q: What about the LOCALIZATION [2] of the same molecule?
A: The LOCALIZATION was “MITO and NUCLEOLI”.

Q: For COc1ccc(C=Cc2cc[n+](C)c(-c3cc(C)ccn3)c2)cc1.[I-] [Compound J10], which “EM(nm)” value ([1]; EX/EM peak no. 1) is on record?
A: The value was 520 nm.

Q: What about the “EX(nm)” value ([1]; EX/EM peak no. 1) of the same molecule?
A: The value was 350-450 nm.

Q: What about the LOCALIZATION [2] of the same molecule?
A: The LOCALIZATION was “MITO”.

Q: For Cc1cccc(C=CC=Cc2ccccc2)[n+]1C.[I-] [Compound L35], which “EM(nm)” value ([1]; EX/EM peak no. 1) is on record?
A: Its value is 510 nm.

Q: And the “EX(nm)” value ([1]; EX/EM peak no. 1)?
A: Its value is 420 nm.

Q: What about the LOCALIZATION [2] of the same molecule?
A: The LOCALIZATION was “MITO”.

Q: Which results are given for C[n+]1c(C=Cc2cccc3ccccc23)ccc2ccccc21.[I-] [Compound H32]?
A: EM(nm) ([1]; EX/EM peak no. 1): 660 nm; EX(nm) ([1]; EX/EM peak no. 1): 420 nm; LOCALIZATION [2]: MITO and NUCLEOLI

Q: With C[n+]1c(C=Cc2ccc(OCc3ccccc3)c(OCc3ccccc3)c2)ccc2ccccc21.[I-] [Compound H12] as the molecule, how does the “EM(nm)” value ([1]; EX/EM peak no. 1) read?
A: The value was 560 nm.

Q: What about the “EX(nm)” value ([1]; EX/EM peak no. 1) of the same molecule?
A: The value was 430 nm.

Q: And the LOCALIZATION [2]?
A: Its LOCALIZATION is “VESICLE”.

Q: Which “EM(nm)” value ([1]; EX/EM peak no. 1) does the source give for COc1ccc2c(ccc(C=Cc3ccc(-c4ccccc4)cc3)[n+]2C)c1.[I-] [Compound I17] here?
A: The value was 510 nm.

Q: What about the LOCALIZATION [2] of the same molecule?
A: The LOCALIZATION was “VESICLE”.

Q: With COc1ccc2ccccc2c1C=Cc1ccc2ccccc2[n+]1C.[I-] [Compound H23] as the molecule, how does the “EM(nm)” value ([1]; EX/EM peak no. 1) read?
A: The value was 580 nm.

Q: What about the “EX(nm)” value ([1]; EX/EM peak no. 1) of the same molecule?
A: Its value is 420-480 nm.

Q: And the LOCALIZATION [2]?
A: The LOCALIZATION was “VESICLE; also recorded: NUCLEOLI”.

Q: With COc1ccc2c(ccc(C=Cc3ccc(F)cc3)[n+]2C)c1.[I-] [Compound I30] as the molecule, how does the “EM(nm)” value ([1]; EX/EM peak no. 1) read?
A: Its value is 630 nm.

Q: And the LOCALIZATION [2]?
A: Its LOCALIZATION is “MITO”.

Q: With C[n+]1ccc(C=Cc2c[nH]c3ccccc23)cc1.[I-] [Compound A24] as the molecule, how does the “EM(nm)” value ([1]; EX/EM peak no. 1) read?
A: The value was 530 nm.

Q: What about the “EX(nm)” value ([1]; EX/EM peak no. 1) of the same molecule?
A: Its value is 400) nm.

Q: And the LOCALIZATION [2]?
A: The LOCALIZATION was “CYTO”.

Q: For Oc1ccc(C=Cc2cc[n+](C34CC5CC(CC(C5)C3)C4)cc2)cc1.[Br-] [Compound B16], which “EM(nm)” value ([1]; EX/EM peak no. 1) is on record?
A: Its value is 590 nm.

Q: And the “EX(nm)” value ([1]; EX/EM peak no. 1)?
A: The value was 400 nm.

Q: What about the LOCALIZATION [2] of the same molecule?
A: Its LOCALIZATION is “MITO”.
